Results as given in ChEMBL document CHEMBL1201862, “PubChem BioAssay data set” (2004).
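Cultured in 96-well plates, cells were exposed to test compound for 48 hours across five concentrations. Here, GI50 denotes the concentration required for 50% inhibition of growth.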 Active and inactive are the calls of the source. Rule as the data show it: active = GI50 up to about 1.1 µM and inactive = higher.

Legend:
Assay in all cases: NCI tumour cell line growth inhibition, 48 h
[1] = test system: IGROV-1
[2] = test system: NCI-H226
[3] = test system: UO-31
[4] = test system: TK-10
[5] = test system: SK-MEL-2
[6] = test system: SF-268
[7] = test system: Hs-578T
[8] = test system: SN12C
[9] = test system: 786-0
[10] = test system: SK-MEL-5
[11] = test system: ACHN
[12] = test system: RXF 393
[13] = test system: HCT-116
[14] = test system: UACC-62
[15] = test system: U-251
[16] = test system: SF-539
[17] = test system: A498
[18] = test system: Malme-3M
[19] = test system: HCC 2998

SMILES | GI50 [1] | GI50 [2] | GI50 [3] | GI50 [4] | GI50 [5] | GI50 [6] | GI50 [7] | GI50 [8] | GI50 [9] | GI50 [10] | GI50 [11] | GI50 [12] | GI50 [13] | GI50 [14] | GI50 [15] | GI50 [16] | GI50 [17] | GI50 [18] | GI50 [19]
O=C1/C(=N\n2c(S)nnc2-c2ccncc2)c2cc(Cl)ccc2N1CN1CCCCC1 | 16.1 µM (inactive) | > 100 µM (inactive) | 56.5 µM (inactive) | 30.3 µM (inactive) | 20.9 µM (inactive) | 53.5 µM (inactive) | 19.8 µM (inactive) | 55.8 µM (inactive) | 27.7 µM (inactive) | 48.6 µM (inactive) | 50.4 µM (inactive) | 15.8 µM (inactive) | 37.8 µM (inactive) | 34.4 µM (inactive) | 40.4 µM (inactive) | 35 µM (inactive) | 50.9 µM (inactive) | > 100 µM (inactive) | –
CN(C)c1ccc(/C=C2\C[C@H]3[C@@H]4CCC5=CC(=O)CC[C@]5(C)[C@H]4CC[C@]3(C)C2=O)cc1 | 63.1 µM (inactive) | 62.4 µM (inactive) | 63.2 µM (inactive) | 32.5 µM (inactive) | 50.9 µM (inactive) | 46.3 µM (inactive) | 38.4 µM (inactive) | 44.3 µM (inactive) | 48 µM (inactive) | 12.4 µM (inactive) | 29.4 µM (inactive) | 99.5 µM (inactive) | 24.7 µM (inactive) | 20 µM (inactive) | 20.2 µM (inactive) | 28.7 µM (inactive) | 37.7 µM (inactive) | 25 µM (inactive) | –
CSc1nc2ccccc2c(=O)n1/N=C1\C(=O)N(CN2CCCCC2)c2ccc(Cl)cc21 | 13.5 µM (inactive) | 75.9 µM (inactive) | 45.8 µM (inactive) | 26.4 µM (inactive) | 19.5 µM (inactive) | 20.1 µM (inactive) | 37.7 µM (inactive) | 28.7 µM (inactive) | 22.3 µM (inactive) | 27.9 µM (inactive) | 28.6 µM (inactive) | 17.5 µM (inactive) | 18.5 µM (inactive) | 8.89 µM (inactive) | 33.3 µM (inactive) | 37.6 µM (inactive) | 27.8 µM (inactive) | > 100 µM (inactive) | –
CCCCNC(=S)c1ccc(OC(=O)Nc2ccc(Cl)cc2)cc1 | 3.02 µM (inactive) | – | 19.7 µM (inactive) | – | 19.3 µM (inactive) | 49.1 µM (inactive) | 57.7 µM (inactive) | – | > 100 µM (inactive) | 20 µM (inactive) | 70.6 µM (inactive) | – | 38.4 µM (inactive) | 0.914 µM (active) | > 100 µM (inactive) | > 100 µM (inactive) | 85.1 µM (inactive) | 79.8 µM (inactive) | > 100 µM (inactive)
C=CC(Br)(CBr)CCC(Br)C(C)C (centres undefined) | 3.46 µM (inactive) | 16.6 µM (inactive) | 13 µM (inactive) | 3.13 µM (inactive) | 2.96 µM (inactive) | 5.48 µM (inactive) | 2.64 µM (inactive) | 10.7 µM (inactive) | 1.58 µM (inactive) | 5.24 µM (inactive) | 8.15 µM (inactive) | 5.89 µM (inactive) | 5.57 µM (inactive) | 3.12 µM (inactive) | 3.66 µM (inactive) | 2.66 µM (inactive) | 18.7 µM (inactive) | 13.5 µM (inactive) | –
CC1CCC2C(C)(C)CC3(C)CCC1C23O (centres undefined) | 14.6 µM (inactive) | 15.3 µM (inactive) | 16.4 µM (inactive) | 17.7 µM (inactive) | 14.1 µM (inactive) | – | 16.7 µM (inactive) | 16.9 µM (inactive) | 15.6 µM (inactive) | 14.6 µM (inactive) | 16.1 µM (inactive) | 17 µM (inactive) | 14.8 µM (inactive) | 14.9 µM (inactive) | 16 µM (inactive) | 17.8 µM (inactive) | 18.5 µM (inactive) | 13.3 µM (inactive) | –
